Laboratory results from paper PMC5584254, “Identification of novel small molecule Beclin 1 mimetics activating autophagy” (Oncotarget, 2017).

Tests used:
[1] = molecular target: T1, Bcl-xL-Beclin 1 20-mer complex (Homo sapiens, UniProt Q07817); experiment: FP competitive binding assay (disruption of Bcl-xL-20-mer complex); details: 50 nM 20-mer, 2 μM Bcl-xL
T1 construct: made in house
Experimental: Figure 1 FP-based HTS for Beclin 1 mimetics (A) Schematic presentation of the Beclin 1 protein and sequences of five synthetic peptides modified from Beclin 1 BH3 peptide. Diagram of human Beclin 1 protein with different domains is shown in the bottom. BH3 domain is necessary and sufficient for interaction with Bcl-2/Bcl-xL. Amino acids in red are the critical residues for the binding. (B) Five fluorescein-labeled Beclin 1 BH3 peptides were tested for their binding ability to Bcl-xL protein in FP assay. Fluorescein-labeled Bak BH3 peptide was used as a positive control. Bcl-xL protein was titrated to a solution of 50 nM peptides. (C) Competitive binding assay with positive controls, ABT-263 and (–)-gossypol ((–)G). […] (D–E) HTS was performed with ~50000 compounds from Prestwick, Microsource, CMLD and Chembridge libraries. The four libraries were divided into two groups and screened separately. Compounds activity (percent of inhibition) of first screen (D) and second screen (E) were shown with Z′ value indicated on top. Plate median + 3SD was used as a threshold to determine the initial hits.
Bcl-xL protein was immobilized on the sensor chip with 10000 RU.
All N′-fluorescein-labeled peptides were purchased from Kansas State University (Manhattan, KS). […] 16mer Bak ([…]) sequence was from published literature. Bcl-xL protein (25 kDa, > 90% pure based on SDS–PAGE) was expressed and purified in Protein Product Group, University of Kansas. FP assays were carried out as described in our previous publication with some modified. […] Then, fluorescein-labeled peptide was added to each well with a final concentration of 50 nM and incubated at room temperature for 30 min. Anisotropy measurements were taken at room temperature using a BioTek Synergy H4 plate reader (Biotek, Winooski, VT) following the protocol recommended by the manufacture. The Kd was estimated by nonlinear regression to a one-site binding model using GraphPad Prism 5.0 (GraphPad, San Diego, CA). […] Compound solvent DMSO only was used as a negative control in the competition assay. After 2 h incubation, the plate was read and polarization was calculated.

PC-3 = experiment: MTT-based cytotoxicity assay, PC-3; details: Homo sapiens, averages of at least two independent experiments, read-out: Cytotoxicity in different cell lines (IC50, μM) PC-3
Source text: (§1) Human prostate cancer cell lines PC-3 and DU145, were purchased from American Type Culture Collection (ATCC) and used within 50 passages. PC-3a is a derivative of PC-3 that is resistant to chemo/radiotherapy, established in our lab and confirmed by genotyping. All cells were maintained in DMEM (Mediatech, Manassas, VA) supplemented with 10% fetal bovine serum (FBS) (Sigma-Aldrich, St. Louis, MO), 1% Glutamine (Mediatech, Manassas, VA), 1% antibiotics (Mediatech, Manassas, VA). Compounds for primary FP-based HTS screening were from Prestwick, Microsource, University of Kansas Center of Excellence in Chemical Methodologies & Library Development (KU CMLD, Lawrence, KS), and Chembridge libraries. Compounds for MTT and SPR validation experiment were purchased from Microsource (Gaylordsville, CT) and Hit2lead Company (San Diego, CA). Acridine analogues, compound 1–6, were from our in-house library (provided by Specialized Chemistry Center, University of Kansas, Lawrence, KS); compound 7–17 were synthesized as described in supplementary information. (–)-Gossypol was isolated from racemic gossypol as we previously described. ABT-263 and DMSO were purchased from Sigma. MTT-based cytotoxicity assay and western blot analysis was carried out according to our previous publications. The primary antibodies used were LC3B (#2775) (Cell signaling Technology, Danvers, MA) and β-actin (A5441) (Sigma).

Bcl-xL protein = molecular target: T2, Bcl-xL protein (Homo sapiens, UniProt Q07817); experiment: Surface plasmon resonance assay, immobilized Bcl-xL; format: binding; details: SPR; 10 μM compound; Bcl-xL immobilized 10000 RU
T2 construct: made in house
Experimental: The surface plasmon resonance experiments were performed using a Biacore 3000 (GE Healthcare Pittsburgh, PA) equipped with a research-grade CM5 sensor chip. The ligand (Bcl-xL) was immobilized using amine-coupling chemistry. The surfaces of flow cells on a Biacore sensor chip CM5 were activated for 7 min with a 1:1 mixture of 0.1 M NHS (N-hydroxysuccinimide) and 0.1 M EDC (3-(N,N-dimethylamino) propyl-N-ethylcarbodiimide) at a flow rate of 5 μL/min. The ligand (Bcl-xL) at a concentration of 180 μg/mL in 10 mM sodium acetate, pH 4.5, was immobilized at a density of about 10000 RU on flow cell 2; the ligand (SUMO-Bcl-2, 37.5 kDa, > 90% pure based on SDS–PAGE) at a concentration of 44 μg/ml in 10 mM sodium acetate, pH 4.5, was immobilized at a density of 10000 RU on flow cell 3; flow cell 1 was left blank to serve as a reference surface. All the surfaces were blocked with a 7 min injection of 1 M ethanolamine, pH 8.0.
For kinetic analysis, a concentration series of analyte were injected over the flow cells at a flow rate of 60 μL/min at 20 °C. The complex was allowed to associate and dissociate for 120 and 180 s, respectively. For binding studies, analyte (or test compound) was injected over the two flow cells in duplicate at indicated concentration at a flow rate of 60 μL/min at 20 °C. The running buffer consisted of 20 mM HEPES, 150 mM NaCl, 3 mM EDTA, 1 mM DTT, 0.05% P20, 5% DMSO, pH 7.4. The complex was allowed to associate and dissociate for 120 and 180 s, respectively. The buffer samples containing a range of 4–6% DMSO were injected at the beginning, used for solvent correction. The surfaces were regenerated between binding cycles with a 5 s injection of 5 mM NaOH for compounds and 10 mM Glycine pH 2.5 for 20-mer.
All measurements were taken with flow cell 1 as a reference (i.e. sensorgram depicts “2–1 correction”) and corrected for DMSO bulk differences via the calibration curves. To obtain kinetic rate constants (Ka and Kd), corrected response data were fit to a simple 1:1 interaction model using local fit (includes correction for mass transport limitations) available within Biaevaluation 3.1 software or Scrubber2 software. The equilibrium dissociation constant (KD) was determined by Kd/Ka.

DU145 = experiment: MTT-based cytotoxicity assay, DU145; details: Homo sapiens, DU-145, averages of at least two independent experiments, read-out: Cytotoxicity in different cell lines (IC50, μM) DU145
Source text: as §1

PC-3a = experiment: MTT-based cytotoxicity assay, PC-3a; details: Homo sapiens, averages of at least two independent experiments, read-out: Cytotoxicity in different cell lines (IC50, μM) PC-3a
Source text: as §1

[2] = system: DU145, PC-3a and PC-3 prostate cancer cell lines; experiment: MTT-based cytotoxicity assay, all three prostate cancer cell lines; design: species or system Human; details: for IC50: Homo sapiens, DU-145, MTT, DU145, PC-3a and PC-3, read-out: cytotoxicity IC50, stated for all three cell lines together
Source text: We also tested the cytotoxicity of the 17 compounds in human prostate cancer cell lines by MTT assay (Table 1).
as §1, with “PC-3a is a derivative of PC-3 that is resistant to chemo/radiotherapy, established in our lab and confirmed by genotyping.” left out, “Acridine analogues, compound 1–6, were from our in-house library (provided by Specialized Chemistry Center, University of Kansas, Lawrence, KS); compound 7–17 were synthesized as described in supplementary information.” left out

Bcl-xL-Beclin 1 complex [3] = molecular target: T3, Bcl-xL-Beclin 1 complex (Homo sapiens, UniProt Q07817); experiment: FP-based high-throughput screening, primary screen; format: binding; details: first screen; 40 μM compound, 2.5 μM Bcl-xL, 400 nM 20-mer
T3 construct: made in house
Source text: Next, we optimized the FP competitive binding assay in a 384-well microplate format and carried out a small-scale HTS using a small library, which contains 6580 compounds from Prestwick, Microsource and our in-house CMLD library. Then, the FP assay was optimized and applied in screening the larger Chembridge library consisting of 43736 compounds. HTS cascades are shown in Supplementary Figure 1A–1B. […] All chemical structures can be found on the PubChem website (http://pubchem.ncbi.nlm.nih.gov/).
(§2) Then the plates were read by Envision (Perkin Elmer, Waltham, MA). […] The hits were selected from library stocks and reconfirmed in a concentration response FP assay (6 doses ranging from 5 μM to 160 μM or 8 doses ranging from 0.5 μM to 60 μM).

Bcl-xL-Beclin 1 complex [4] = molecular target: T3, Bcl-xL-Beclin 1 complex; experiment: Concentration response FP reconfirmation of HTS hits; format: binding; details: hits of first screen
Experimental: as §2

T2 sequence (Q07817 whole entry): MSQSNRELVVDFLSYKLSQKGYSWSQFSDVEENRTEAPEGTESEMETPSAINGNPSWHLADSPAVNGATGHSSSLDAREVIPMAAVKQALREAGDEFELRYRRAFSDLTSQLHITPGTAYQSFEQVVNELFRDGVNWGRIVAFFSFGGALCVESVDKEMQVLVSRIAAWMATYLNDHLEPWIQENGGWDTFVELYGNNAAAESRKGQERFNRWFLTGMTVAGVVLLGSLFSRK
T3 sequence (Q07817 whole entry, one chain of several): as the sequence (Q07817 whole entry) above
T1 sequence (Q07817 whole entry, one chain of several): as the sequence (Q07817 whole entry) above

| SMILES | IC50 (PC-3) | IC50 (DU145) | IC50 (PC-3a) | other results |
| --- | --- | --- | --- | --- |
| CC(=O)O.Cc1cc2c(C(C)C)c(O)c(O)c(C=O)c2c(O)c1-c1c(C)cc2c(C(C)C)c(O)c(O)c(C=O)c2c1O [(–)-gossypol] | – | – | – | competitive displacement of fluorescent 20-mer [1]: capable of freeing out fluorescent 20mer |
| CC1(C)CCC(c2ccc(Cl)cc2)=C(CN2CCN(c3ccc(C(=O)NS(=O)(=O)c4ccc(N[C@H](CCN5CCOCC5)CSc5ccccc5)c(S(=O)(=O)C(F)(F)F)c4)cc3)CC2)C1 [ABT-263] | – | – | – | competitive displacement of fluorescent 20-mer [1]: capable of freeing out fluorescent 20mer |
| COc1ccc(CCN(C)c2c3ccccc3nc3ccccc23)cc1OC [Compound 1] | 6.04 ± 0.68 µM | 8.15 ± 0.59 µM | 5.81 ± 1.16 µM | binding level to Bcl-xL protein in SPR (Bcl-xL protein): almost no binding |
| CN(CCc1ccc(O)c(O)c1)c1c2ccccc2nc2ccccc12 [Compound 2] | 38.7 ± 5.46 µM | 47 ± 7.39 µM | 29.2 ± 11.2 µM | – |
| COc1ccc(CCNc2ncnc3ccccc23)cc1OC [Compound 3] | – | > 100 µM | 82.7 ± 7.99 µM | binding level to Bcl-xL protein in SPR (Bcl-xL protein): almost no binding; IC50 [2]: > 100 µM |
| COc1cc(Br)c(CCNc2c3ccccc3nc3ccccc23)cc1OC [Compound 4] | 4.43 ± 0.46 µM | 6.33 ± 0.32 µM | 4.37 ± 0.68 µM | – |
| Nc1c2ccccc2nc2ccccc12 [Compound 5] | 0.79 ± 0.07 µM | 2.78 ± 0.79 µM | 0.74 ± 0.45 µM | IC50 [2]: 0.5 to 5 µM; fold difference in IC50 value, PC-3 and PC-3a versus DU145 ([2]; higher cytotoxicity in PC-3 and PC-3a than in DU145): 3–5 fold |
| O=C(CSc1nc(=O)c2ccccc2[nH]1)c1ccc(O)c(O)c1 [Compound 6] | > 100 µM | > 100 µM | > 100 µM | binding level to Bcl-xL protein in SPR (Bcl-xL protein): almost no binding; IC50 [2]: > 100 µM |
| COc1ccc2nc3cc(Cl)ccc3c(NCCOCCO)c2c1 [Compound 8] | 1.42 ± 0.73 µM | 3.68 ± 0.55 µM | 1.64 ± 0.78 µM | – |
| COc1ccc2nc3cc(Cl)ccc3c(Oc3ccccc3)c2c1 [Compound 10] | 14.1 ± 0.71 µM | 77.7 ± 24.2 µM | 36.1 ± 8.23 µM | – |
| COc1ccc2nc3ccccc3c(-c3ccc([N+](=O)[O-])cc3)c2c1 [Compound 11] | > 100 µM | > 100 µM | > 100 µM | binding level to Bcl-xL protein in SPR (Bcl-xL protein): almost no binding; IC50 [2]: > 100 µM |
| COc1ccc2nc3ccccc3c(-c3ccncc3)c2c1 [Compound 12] | 21.6 ± 2.24 µM | 45.4 ± 8.18 µM | 16.4 ± 2.56 µM | – |
| COc1ccc2nc3cc(Cl)ccc3c(-c3ccncc3)c2c1 [Compound 13] | 52.4 ± 10.4 µM | 57 ± 14.5 µM | 53.9 ± 3.66 µM | – |
| COc1ccc2nc3cc(Cl)ccc3c(-c3ccc(F)cc3)c2c1 [Compound 15] | > 100 µM | > 100 µM | > 100 µM | binding level to Bcl-xL protein in SPR (Bcl-xL protein): almost no binding; IC50 [2]: > 100 µM |
| COc1ccc2nc3cc(Cl)ccc3c(-c3ccc(NC(=O)OC(C)(C)C)cc3)c2c1 [Compound 16] | 45 ± 20.2 µM | 36 ± 14 µM | 38.7 ± 20.4 µM | – |
| COc1ccc2nc3cc(Cl)ccc3c(-c3ccc(N)cc3)c2c1 [Compound 17] | 29.5 ± 28.4 µM | 53 ± 14.7 µM | > 100 µM | – |
| CC[N+](C)(CC)CCC[n+]1c(-c2ccccc2)c2cc(N)ccc2c2ccc(N)cc21.[I-].[I-] [Compound A40, PROPIDIUM IODIDE] | – | – | – | Primary Screen % Inhibition (Bcl-xL-Beclin 1 complex [3]): 7.08%; Primary Screen mP (Bcl-xL-Beclin 1 complex [3]): 123.6 mP; Dose-response (% Inhibition) 5 μM (Bcl-xL-Beclin 1 complex [4]; 5 μM): 0.5%; Dose-response (% Inhibition) 10 μM (Bcl-xL-Beclin 1 complex [4]; 10 μM): -0.2%; Dose-response (% Inhibition) 20 μM (Bcl-xL-Beclin 1 complex [4]; 20 μM): 1.2%; Dose-response (% Inhibition) 40 μM (Bcl-xL-Beclin 1 complex [4]; 40 μM): 4.4%; Dose-response (% Inhibition) 80 μM (Bcl-xL-Beclin 1 complex [4]; 80 μM): 12.1%; Dose-response (% Inhibition) 160 μM (Bcl-xL-Beclin 1 complex [4]; 160 μM): 18.3% |
